Where two headings read alike, the source gives them in different places. Starred links: 1 amine or outer side, 2 acyl side, 3 side chain; linkers in the order of their positions; H or OH if unused. Positions of bridges follow the written chain, without caps; N, C: chain ends. Non-standard residues stand in square brackets, D forms with d. Residues, ends and D or L forms follow the SMILES beside them. Phe(3,4-(OMe)2) = COc1ccc(C[C@H](N)C(=O)O)cc1OC; Hyp = O=C(O)[C@@H]1C[C@@H](O)CN1; Pen = CC(C)(S)[C@H](N)C(=O)O; Thz = O=C(O)[C@@H]1CSCN1; CH2 = C([*:1])[*:2]
Legend:
human MC1R = molecular target: T1, human MC1R (Homo sapiens, UniProt Q01726); assay: Functional cAMP assay (CisBio HTRF) in BHK cells expressing human MC1R; format: cell-based; conditions: BHK cells expressing human MC1R; '>' = highest dose used with no response; read-out: MC1R cAMP EC50
T1 construct: expressed in transfected cells
Procedure: In order to assess the potency of the compounds on human MC1R and human MC4R cAMP signalling was measured.
cAMP induction was measured by c-AMPdynamic2 assay, HTRF 62AM4PEC system from CisBio for the human MC1R and human MC4R according to the protocol provided by the vendor. BHK cells expressing the human MC1 or MC4 receptor were generated by stable transfection with expression vectors encoding the cDNA of either MC1R or MC4R.
In details; 25 μl compound—or standard solution were added in the respective wells. Compound was reconstituted in buffer (DMEM w/o phenol red, 10 mM
Hepes, lx Glutamine, 0.1% OV-albumin1, 1 mM IBMX) and serially diluted starting at 2 μM, 10-fold seven times. Dilutions were carried out in the same aforementioned buffer to the desired working concentration ranges (2× higher than the final concentration). 25 μl cell solution was then added and allowed to incubate for 30 min while lightly shaking, at 25° C. […] The provided components for the assay were reconstituted according to the CisBio assay protocol “3.1 supplied reagents and preparation procedure” in MilliQ purification system H2O and diluted 1:20 in lysis buffer. 25 μl cAMP-d2 and 25 μl Cryptate conjugate were added to all wells.
Plates were centrifuged at 1500 rpm for 30 sec and incubated for 1 h, lightly shaking, at 25° C. in a hotel stacker. The plates were read on Mithras LB 940 provided by Berthold Technologies The data were analysed by non-linear regression analysis of binding curves, using the Windows™ program GraphPad™ Prism (GraphPad Software, USA).
The latter is used when no full curve can be obtained in the concentration ranges indicated above.

human MC4R [1] = molecular target: T2, human MC4R (Homo sapiens, UniProt P32245); assay: Functional cAMP assay (CisBio HTRF) in BHK cells expressing human MC4R; format: cell-based; conditions: for MC1R/MC4R cAMP EC50 ratio: MC1R cAMP EC50 divided by MC4R cAMP EC50
T2 construct: expressed in transfected cells
Procedure, shortened: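 Stably transfected BHK cells expressing human MC1R or MC4R; cAMP quantified by HTRF (cAMP-d2/cryptate) after 30 min compound stimulation at 25 °C in DMEM-based buffer with 1 mM IBMX. Compounds were prepared as 10-fold serial dilutions starting at 2 μM (working solution, 2× final). Readout after 1 h at 25 °C; non-linear regression.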

human MC4R [2] = molecular target: T2, human MC4R; assay: 125NDP-α-MSH competitive binding to membranes of BHK cells expressing human MC4 receptor (filtration assay)
Procedure, shortened: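 Displacement of ^125NDP-α-MSH (apx. […] final) was measured by filtration after 2 h at 25 °C, using diluted membranes of stably transfected BHK cells in pH 7.0 HEPES buffer. Compounds spanned 1 μM to 0.001 nM; binding curves were analysed by non-linear regression.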

[3] = BHK cells expressing human MC4R, '>' = highest dose used with no response, read-out: MC4R cAMP EC50
[4] = human MC4R, BHK cell membranes, 125NDP-α-MSH radioligand, read-out: MC4R binding Ki

T1 sequence (Q01726 whole entry): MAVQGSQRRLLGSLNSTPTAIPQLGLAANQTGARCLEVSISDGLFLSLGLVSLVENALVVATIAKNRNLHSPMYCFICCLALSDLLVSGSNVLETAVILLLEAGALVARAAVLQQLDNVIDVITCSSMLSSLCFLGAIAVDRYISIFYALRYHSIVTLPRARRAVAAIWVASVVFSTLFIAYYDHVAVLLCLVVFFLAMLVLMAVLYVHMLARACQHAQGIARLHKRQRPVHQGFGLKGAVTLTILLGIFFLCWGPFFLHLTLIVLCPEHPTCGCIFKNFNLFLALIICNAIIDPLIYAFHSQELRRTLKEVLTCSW
T2 sequence (P32245 whole entry): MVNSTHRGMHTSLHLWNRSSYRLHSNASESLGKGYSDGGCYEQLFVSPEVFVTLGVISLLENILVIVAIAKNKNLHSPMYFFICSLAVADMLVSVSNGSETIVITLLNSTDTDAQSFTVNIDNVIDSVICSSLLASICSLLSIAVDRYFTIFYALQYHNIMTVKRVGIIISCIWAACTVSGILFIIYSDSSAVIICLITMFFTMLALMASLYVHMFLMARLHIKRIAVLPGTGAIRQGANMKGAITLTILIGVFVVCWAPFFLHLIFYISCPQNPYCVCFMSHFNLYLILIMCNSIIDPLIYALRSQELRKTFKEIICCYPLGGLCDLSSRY

| EC50 (human MC1R) | MC1R/MC4R cAMP EC50 ratio (human MC4R [1]) | EC50 (human MC4R [1]; [3]) | Ki (human MC4R [2]; [4]) | SMILES | EC50 (human MC4R [1]) | Ki (human MC4R [2]) |
| --- | --- | --- | --- | --- | --- | --- |
| > 1 nM | >5 | 0.21 nM |  | C[C@@H]1NC(=O)[C@@H]2CSSC[C@H](NC(=O)[C@H](Cc3c[nH]c4ccccc34)NC(=O)[C@H](CCCN)NC(=O)[C@@H](Cc3ccccc3)NC(=O)[C@H](Cc3c[nH]cn3)NC1=O)C(=O)N[C@@H](C)C(=O)N[C@@H](Cc1c[nH]cn1)C(=O)N[C@H](Cc1ccccc1)C(=O)N[C@@H](CCCN)C(=O)N[C@@H](Cc1c[nH]c3ccccc13)C(=O)N2 [Chem. 16, c[c[Cys-Ala-His-D-Phe-Orn-Trp-Cys]- Ala-His-D-Phe-Orn-Trp]] |  |  |
|  | 362 | 0.13 nM | 0.04 nM | C[C@@H]1NC(=O)[C@@H]2CSSC(C)(C)[C@H](NC(=O)[C@H](CCCNC(=N)N)NC(=O)[C@H](CCCCN)NC(=O)[C@H](CCCCN)NC(=O)[C@H](CCCCN)NC1=O)C(=O)N1CCC[C@H]1C(=O)N[C@@H](Cc1c[nH]cn1)C(=O)N[C@H](Cc1ccccc1)C(=O)N[C@@H](Cc1c[nH]cn1)C(=O)N[C@@H](Cc1c[nH]c3ccccc13)C(=O)N2 [Chem. 92, c[c[Pen-Pro-His-D-Phe-His-Trp-Cys]- Ala-Lys-Lys-Lys-Arg]] (cyclo(AKKKR[Pen]PH[dF]HWC); disulfide 6-12) |  |  |
|  | 456 | 0.04 nM | 0.03 nM | C[C@@H]1NC(=O)[C@H]2NC(=O)[C@H](Cc3c[nH]c4ccccc34)NC(=O)[C@H](Cc3c[nH]cn3)NC(=O)[C@@H](Cc3ccccc3)NC(=O)[C@H](Cc3c[nH]cn3)NC(=O)[C@@H]3CCCN3C(=O)[C@H](CSSC2(C)C)NC(=O)[C@H](CCCNC(=N)N)NC(=O)[C@H](CCCCN)NC(=O)[C@H](CCCCN)NC(=O)[C@H](CCCCN)NC1=O [Chem. 93, c[c[Cys-Pro-His-D-Phe-His-Trp-Pen]- Ala-Lys-Lys-Lys-Arg]] (cyclo(AKKKRCPH[dF]HW[Pen]); disulfide 6-12) |  |  |
|  | 26 |  | 0.25 nM | COc1ccc(C[C@@H]2NC(=O)[C@H](CCCNC(=N)N)NC(=O)[C@@H](Cc3ccccc3)NC(=O)[C@H](Cc3c[nH]cn3)NC(=O)[C@@H]3CCCN3C(=O)[C@@H]3CSSC[C@H](NC2=O)C(=O)N[C@@H](C)C(=O)N[C@@H](CCCCN)C(=O)N[C@@H](CCCCN)C(=O)N[C@@H](CCCCN)C(=O)N[C@@H](CCCNC(=N)N)C(=O)N3)cc1OC [Chem. 94, c[c[Cys-Pro-His-D-Phe-Arg-3,4- DiMeO-Phe-Cys]-Ala-Lys-Lys-Lys- Arg]] (cyclo(AKKKRCPH[dF]R[Phe(3,4-(OMe)2)]C); disulfide 6-12) |  |  |
|  | 399 | 0.22 nM | 0.07 nM | C[C@@H]1NC(=O)[C@@H]2CSSC[C@H](NC(=O)[C@H](CCCNC(=N)N)NC(=O)[C@H](Cc3c[nH]cn3)NC(=O)[C@H](CCCCN)NC(=O)[C@H](CCCCN)NC1=O)C(=O)N1CCC[C@H]1C(=O)N[C@@H](Cc1c[nH]cn1)C(=O)N[C@H](Cc1ccccc1)C(=O)N[C@@H](Cc1c[nH]cn1)C(=O)N[C@@H](Cc1c[nH]c3ccccc13)C(=O)N2 [Chem. 95, c[c[Cys-Pro-His-D-Phe-His-Trp-Cys]- Ala-Lys-Lys-His-Arg]] (cyclo(AKKHRCPH[dF]HWC); disulfide 6-12) |  |  |
|  | 122 | 0.19 nM | 0.05 nM | C[C@@H]1NC(=O)[C@@H]2CSSC[C@H](NC(=O)[C@H](CCCNC(=N)N)NC(=O)[C@H](CCCCN)NC(=O)[C@H](CCCCN)NC(=O)[C@H](CCCCN)NC1=O)C(=O)N1C[C@H](O)C[C@H]1C(=O)N[C@@H](Cc1c[nH]cn1)C(=O)N[C@H](Cc1ccccc1)C(=O)N[C@@H](Cc1c[nH]cn1)C(=O)N[C@@H](Cc1c[nH]c3ccccc13)C(=O)N2 [Chem. 97, c[c[Cys-Hyp-His-D-Phe-His-Trp-Cys]- Ala-Lys-Lys-Lys-Arg]] (cyclo(AKKKRC[Hyp]H[dF]HWC); disulfide 6-12) |  |  |

The next lines start with the compound.

| SMILES | EC50 (human MC1R) | MC1R/MC4R cAMP EC50 ratio (human MC4R [1]) | EC50 (human MC4R [1]; [3]) | Ki (human MC4R [2]; [4]) | EC50 (human MC4R [1]) | Ki (human MC4R [2]) |
| --- | --- | --- | --- | --- | --- | --- |
| C[C@@H]1NC(=O)[C@@H]2CSSC[C@H](NC(=O)[C@H](Cc3c[nH]c4ccccc34)NC(=O)[C@H](CCCNC(=N)N)NC(=O)[C@@H](Cc3ccccc3)NC(=O)[C@@H]3C[C@@H](O)CN3C1=O)C(=O)N[C@@H](C)C(=O)N1C[C@H](O)C[C@H]1C(=O)N[C@H](Cc1ccccc1)C(=O)N[C@@H](CCCNC(=N)N)C(=O)N[C@@H](Cc1c[nH]c3ccccc13)C(=O)N2 [Chem. 14, c[c[Cys-Ala-Hyp-D-Phe-Arg-Trp- Cys]-Ala-Hyp-D-Phe-Arg-Trp]] (cyclo(A[Hyp][dF]RWCA[Hyp][dF]RWC); disulfide 6-12) | > 10 nM | >3 |  |  |  |  |
| C[C@@H]1NC(=O)[C@@H]2CSSC[C@H](NC(=O)[C@H](Cc3c[nH]c4ccccc34)NC(=O)[C@H](CCCNC(N)=O)NC(=O)[C@@H](Cc3ccccc3)NC(=O)[C@H](Cc3c[nH]cn3)NC1=O)C(=O)N[C@@H](C)C(=O)N[C@@H](Cc1c[nH]cn1)C(=O)N[C@H](Cc1ccccc1)C(=O)N[C@@H](CCCNC(N)=O)C(=O)N[C@@H](Cc1c[nH]c3ccccc13)C(=O)N2 [Chem. 19, c[c[Cys-Ala-His-D-Phe-Cit-Trp-Cys]- Ala-His-D-Phe-Cit-Trp]] | > 1 nM | >8 | 0.13 nM |  |  |  |
| C[C@@H]1NC(=O)[C@@H]2CSCSC[C@H](NC(=O)[C@H](Cc3c[nH]c4ccccc34)NC(=O)[C@H](CCCNC(=N)N)NC(=O)[C@@H](Cc3ccccc3)NC(=O)[C@@H]3C[C@@H](O)CN3C1=O)C(=O)N[C@@H](C)C(=O)N1C[C@H](O)C[C@H]1C(=O)N[C@H](Cc1ccccc1)C(=O)N[C@@H](CCCNC(=N)N)C(=O)N[C@@H](Cc1c[nH]c3ccccc13)C(=O)N2 [Chem. 23, c[c[Cys-Ala-Hyp-D-Phe-Arg-Trp- Cys]-Ala-Hyp-D-Phe-Arg-Trp]] (cyclo(A[Hyp][dF]RWCA[Hyp][dF]RWC); linker 6-12 via CH2) | > 10 nM | >3 |  |  |  |  |
| C[C@@H]1NC(=O)[C@@H]2CSSC[C@H](NC(=O)[C@H](Cc3c[nH]c4ccccc34)NC(=O)[C@@H]3C[C@@H](NC(=N)N)CN3C(=O)[C@@H](Cc3ccccc3)NC(=O)[C@H](Cc3c[nH]cn3)NC1=O)C(=O)N[C@@H](C)C(=O)N[C@@H](Cc1c[nH]cn1)C(=O)N[C@H](Cc1ccccc1)C(=O)N1C[C@H](NC(=N)N)C[C@H]1C(=O)N[C@@H](Cc1c[nH]c3ccccc13)C(=O)N2 [Chem. 28, c[c[Cys-Ala-His-D-Phe-4trans- GuaPro-Trp-Cys]-Ala-His-D-Phe- 4trans-GuaPro-Trp]] | > 100 nM |  |  |  |  |  |
| C[C@@H]1NC(=O)[C@@H]2CSSC[C@H](NC(=O)[C@H](Cc3c[nH]c4ccccc34)NC(=O)[C@@H]3C[C@H](NC(=N)N)CN3C(=O)[C@@H](Cc3ccccc3)NC(=O)[C@H](Cc3c[nH]cn3)NC1=O)C(=O)N[C@@H](C)C(=O)N[C@@H](Cc1c[nH]cn1)C(=O)N[C@H](Cc1ccccc1)C(=O)N1C[C@@H](NC(=N)N)C[C@H]1C(=O)N[C@@H](Cc1c[nH]c3ccccc13)C(=O)N2 [Chem. 29, c[c[Cys-Ala-His-D-Phe-4cis-GuaPro- Trp-Cys]-Ala-His-D-Phe-4cis-GuaPro- Trp]] | > 100 nM |  |  |  |  |  |
| NCCCC[C@H]1NC(=O)[C@@H]2CSSC[C@H](NC(=O)[C@H](Cc3c[nH]c4ccccc34)NC(=O)[C@H](Cc3c[nH]cn3)NC(=O)[C@@H](Cc3ccccc3)NC(=O)[C@H](Cc3c[nH]cn3)NC1=O)C(=O)N[C@H](CCCCN)C(=O)N[C@@H](Cc1c[nH]cn1)C(=O)N[C@H](Cc1ccccc1)C(=O)N[C@@H](Cc1c[nH]cn1)C(=O)N[C@@H](Cc1c[nH]c3ccccc13)C(=O)N2 [Chem. 86, c[c[Cys-D-Lys-His-D-Phe-His-Trp- Cys]-D-Lys-His-D-Phe-His-Trp]] (cyclo(C[dK]H[dF]HWC[dK]H[dF]HW); disulfide 1-7) |  | 10 | 14.5 nM | 9.6 nM |  |  |
| C[C@@H]1NC(=O)[C@@H]2CSSC[C@H](NC(=O)[C@H](CCCNC(=N)N)NC(=O)[C@H](CCCCN)NC(=O)[C@H](CCCCN)NC(=O)[C@H](CCCCN)NC1=O)C(=O)N1CSC[C@H]1C(=O)N[C@@H](Cc1c[nH]cn1)C(=O)N[C@H](Cc1ccccc1)C(=O)N[C@@H](Cc1c[nH]cn1)C(=O)N[C@@H](Cc1c[nH]c3ccccc13)C(=O)N2 [Chem. 100, c[c[Cys-THAZ-His-D-Phe-His-Trp- Cys]-Ala-Lys-Lys-Lys-Arg]] (cyclo(AKKKRC[Thz]H[dF]HWC); disulfide 6-12) |  | 925 |  |  | 0.02 nM | 0.04 nM |
